From patent publication US20070185211A1, “Crystal forms of cinacalcet HCI and processes for their preparation” (priority 2005, published 2007)

Assay: Crystal form after drying/heating at 50° C. (solid state stability of the polymorph)
Type: physicochemical
Protocol: X-Ray powder diffraction data were obtained using a SCINTAG powder X-Ray diffractometer model X'TRA equipped with a solid state detector and a variable gonimeter. Copper radiation of 1.5418 Å was used. A round standard aluminum sample holder with round zero background, and cavity of 25(diameter)*0.5(dept) mm. Scanning parameters range of: 2-40 deg. 2θ and continuous scan rate of 3 deg./min.
0.62 gr of Cinacalcet HCl was dissolved in Chloroform (6 ml) at room temperature. […] The slurry was stirred at room temperature for 4 minutes. […]

C[C@@H](NCCCc1cccc(C(F)(F)F)c1)c1cccc2ccccc12.Cl [Cinacalcet HCl crystal form III, (R)-α-methyl-N-[3-[3-(trifluoromethyl)phenyl]propyl]-1-naphthalenemethane amine]
crystalline structure after drying (dried at 50° C. for 24 hours): maintained as form III
crystal form obtained after heating (heated at 50° C. under vacuum for 22 hours): form I was obtained
